Test results as given in patent US7183320B2, “Benzoylsulfonamides and sulfonylbenzamidines for use as antitumour agents” (Eli Lilly and Company, priority 2002, dated 2007).

test system: HCT116 colon carcinoma cells; assay: HCT116 colon carcinoma cell growth inhibition (WST-1, 72 hr); format: cell-based, human; conditions: 72 hr exposure
Procedure: HCT116 Colon Carcinoma Cell Growth Inhibition
HCT116 colon carcinoma cells were grown monolayer culture in RPMI 1640 medium supplemented with 10% fetal bovine serum and 1% penicillin-streptomycin (GibcoBRL, Grand Island, N.Y.). HCT116 cells in exponential growth phase were exposed to various concentrations of the test compounds at 37° C. for 72 hr in 5% carbon dioxide/air. After exposure to the agent, the cells were washed with 0.9% phosphate buffered saline. Growth inhibition was determined using WST-1 cell proliferation reagent as described above. The results are expressed as the growth fraction of treated cells compared with control cultures. Representative compounds of the present invention were tested for efficacy against the human colon HCT116 tumor cells.

Row | IC50 | Compound
1 | 10.1 µM | COC(=O)c1ccc(S(=O)(=O)NC(=O)c2ccc(Cl)cc2Br)cc1 [Example 30, N-[2-bromo-4-chlorobenzoyl]-4-methyoxycarbonyl-phenylsulfonamide]

same assay, conditions: Homo sapiens, HCT-116, 72 hr exposure

Row | Compound | IC50
2 | O=C(NS(=O)(=O)c1cccc(Br)c1)c1ccc(Cl)cc1Cl [Example 1, N-[2,4-dichlorobenzoyl]-3-bromophenylsulfonamide] | 4.2 µM
3 | COc1ccc(S(=O)(=O)NC(=O)c2ccc(Cl)cc2Cl)cc1 [Example 3, N-[2,4-dichlorobenzoyl]-4-methoxyphenylsulfonamide] | 2.5 µM
4 | CC(C)(C)c1ccc(S(=O)(=O)NC(=O)c2ccc(Br)cc2Br)cc1 [Example 5, N-[2,4-dibromobenzoyl]-4-tert-butylphenylsulfonamide] | 3.8 µM
5 | O=C(NS(=O)(=O)c1ccc(F)c(Cl)c1)c1ccc(Cl)cc1Cl [Example 9, N-[2,4-dichlorobenzoyl]-3-chloro-4-fluorophenylsulfonamide] | 1.7 µM
6 | O=C(NS(=O)(=O)c1ccc(Cl)cc1)c1ccc([N+](=O)[O-])cc1Cl [Example 10, N-[2-chloro-4-nitrobenzoyl]-4-chlorophenylsulfonamide] | 12.1 µM
7 | O=C(NS(=O)(=O)c1ccccc1)c1ccc(Br)cc1Cl [Example 11, N-[2-chloro-4-bromobenzoyl]-phenylsulfonamide] | 5.5 µM
8 | O=C(NS(=O)(=O)c1ccc(Br)cc1)c1ccc([N+](=O)[O-])cc1Cl [Example 15, N-[2-chloro-4-nitrobenzoyl]-4-bromophenylsulfonamide] | 10.4 µM
9 | O=C(NS(=O)(=O)c1cccc(Cl)c1)c1ccc(Br)cc1Cl [Example 17, N-[2-chloro-4-bromobenzoyl]-3-chlorophenylsulfonamide] | 15.8 µM
10 | COc1ccc(S(=O)(=O)NC(=O)c2ccc(Br)cc2Cl)cc1 [Example 18, N-[2-chloro-4-bromobenzoyl]-4-methoxyphenylsulfonamide] | 9.3 µM
11 | COc1ccc(S(=O)(=O)NC(=O)c2ccc([N+](=O)[O-])cc2Cl)cc1 [Example 20, N-[2-chloro-4-nitrobenzoyl]-4-methoxyphenylsulfonamide] | 2.4 µM
12 | O=C(NS(=O)(=O)c1ccc(Cl)c(Cl)c1)c1ccc([N+](=O)[O-])cc1Cl [Example 21, N-[2-chloro-4-nitrobenzoyl]-3,4-dichlorophenyl-sulfonamide] | 30.4 µM
13 | O=C(NS(=O)(=O)c1ccc(Br)c(Br)c1)c1ccc(Cl)cc1Cl [Example 24, N-[2,4-dichlorobenzoyl]-3,4-dibromophenylsulfonamide] | 37.1 µM
14 | O=C(NS(=O)(=O)c1cccc(C(F)(F)F)c1)c1ccc(Cl)cc1Cl [Example 25, N-[2,4-dichlorobenzoyl]-3-trifluoromethyl-phenylsulfonamide] | 9.6 µM
15 | O=C(NS(=O)(=O)c1cccc(F)c1)c1ccc(Cl)cc1Cl [Example 26, N-[2,4-dichlorobenzoyl]-3-fluorophenylsulfonamide] | 6.1 µM
16 | COC(=O)c1cc(S(=O)(=O)NC(=O)c2ccc(Cl)cc2Br)ccc1OC [Example 32, N-[2-bromo-4-chlorobenzoyl]-3-methoxycarbonyl-4-methoxyphenylsulfonamide] | 7.8 µM
17 | CC(C)(C)c1ccc(S(=O)(=O)NC(=O)c2ccc(Cl)cc2Br)cc1 [Example 33, N-[2-bromo-4-chlorobenzoyl]-4-tert-butylphenylsulfonamide] | 7.8 µM
18 | COC(=O)c1cc(S(=O)(=O)NC(=O)c2ccc(Br)cc2Br)ccc1OC [Example 34, N-[2,4-dibromobenzoyl]-3-methoxycarbonyl-4-methoxyphenylsulfonamide] | 16.5 µM

Row | Compound | IC50
19 | COc1cc(C)ccc1S(=O)(=O)NC(=O)c1ccc(Cl)cc1C [Example 44, N-[2-methyl-4-chlorobenzoyl]-2-methoxy-4-methylphenylsulfonamide] | 18.7 µM
20 | Cc1ccc(S(=O)(=O)NC(=O)c2ccc(Cl)cc2C)cc1Cl [Example 45, N-[2-methyl-4-chlorobenzoyl]-3-chloro-4-methylphenylsulfonamide] | 20.7 µM
21 | O=C(NS(=O)(=O)c1ccc(F)cc1)c1ccc(C(F)(F)F)cc1C(F)(F)F [Example 46, N-[2,4-bis-trifluoromethylbenzoyl]-4-fluorophenylsulfonamide] | 4.8 µM
22 | COc1ccc(S(=O)(=O)NC(=O)c2ccc(C(F)(F)F)cc2C(F)(F)F)cc1 [Example 47, N-[2,4-bis-trifluoromethylbenzoyl]-4-methoxyphenylsulfonamide] | 8.7 µM
23 | O=C(NS(=O)(=O)c1ccc(Br)cc1)c1ccc(C(F)(F)F)cc1C(F)(F)F [Example 49, N-[2,4-bis-trifluoromethylbenzoyl]-4-bromophenylsulfonamide] | 14.7 µM
24 | Cc1cccc(S(=O)(=O)NC(=O)c2ccc(C(F)(F)F)cc2C(F)(F)F)c1 [Example 50, N-[2,4-bis-trifluoromethylbenzoyl]-3-methylphenylsulfonamide] | 10.5 µM
25 | Cc1cc(Cl)ccc1C(=O)NS(=O)(=O)c1ccc(OC(F)(F)F)cc1 [Example 51, N-[2-methyl-4-chlorobenzoyl]-4-trifluoromethoxy-phenylsulfonamide] | 26.7 µM
26 | O=C(NS(=O)(=O)c1ccc(F)c(F)c1)c1ccc(C(F)(F)F)cc1C(F)(F)F [Example 53, N-[2,4-bis-trifluoromethylbenzoyl]-3,4-difluorophenyl-sulfonamide] | 11.2 µM
27 | Cc1cccc(S(=O)(=O)NC(=O)c2ccc(Cl)cc2C)c1 [Example 55, N-[2-methyl-4-chlorobenzoyl]-3-methylphenylsulfonamide] | 9.5 µM
28 | Cc1cc(Cl)ccc1C(=O)NS(=O)(=O)c1ccc(F)c(F)c1 [Example 57, N-[2-methyl-4-chlorobenzoyl]-3,4-difluorophenyl-sulfonamide] | 5 µM
29 | Cc1ccc(C(=O)NS(=O)(=O)c2ccc(F)c(Cl)c2)c(Cl)c1 [Example 59, N-[2-chloro-4-methylbenzoyl]-3-chloro-4-fluorophenyl-sulfonamide] | 15 µM
30 | Cc1cc(Cl)ccc1C(=O)NS(=O)(=O)c1ccccc1 [Example 60, N-[2-methyl-4-chlorobenzoyl]-phenylsulfonamide] | 6.6 µM
31 | CC(C)c1ccc(S(=O)(=O)NC(=O)c2ccc(C(F)(F)F)cc2C(F)(F)F)cc1 [Example 63, N-[2,4-bis-trifluoromethylbenzoyl]-4-isopropylphenyl-sulfonamide] | 24.7 µM
32 | CC(C)c1ccc(S(=O)(=O)NC(=O)c2ccc(Cl)cc2Br)cc1 [Example 73, N-[2-bromo-4-chlorobenzoyl]-4-isopropylphenyl-sulfonamide] | 8.3 µM
33 | Cc1ccc(S(=O)(=O)NC(=O)c2ccc(C)cc2C(F)(F)F)cc1 [Example 79, N-[2-trifluoromethyl-4-methylbenzoyl]-4-methylphenyl-sulfonamide] | 5.2 µM
34 | COc1cccc(S(=O)(=O)NC(=O)c2ccc(Cl)cc2Cl)c1 [Example 80, N-[2,4-dichlorobenzoyl]-3-methoxyphenyl-sulfonamide] | 12.3 µM

Results, then the compound that gave them:

Row | IC50 | Compound
35 | 4 µM | O=C(NS(=O)(=O)c1ccc(Cl)cc1)c1ccc(Br)cc1Br [Example 6, N-[2,4-dibromobenzoyl]-4-chlorophenylsulfonamide]
36 | 40 µM | O=C(NS(=O)(=O)c1ccc(Br)cc1)c1ccc(Br)cc1Cl [Example 14, N-[2-chloro-4-bromobenzoyl]-4-bromophenylsulfonamide]
37 | 3.8 µM | O=C(NS(=O)(=O)c1ccc(F)cc1)c1ccc(Br)cc1Cl [Example 16, N-[2-chloro-4-bromobenzoyl]-4-fluorophenylsulfonamide]
38 | 15.9 µM | Cc1ccc(S(=O)(=O)NC(=O)c2ccc(Cl)cc2C)cc1 [Example 23, N-[2-methyl-4-chlorobenzoyl]-4-methylphenylsulfonamide]
39 | 17 µM | Cc1cc(Br)ccc1C(=O)NS(=O)(=O)c1ccc(F)c(Cl)c1 [Example 35, N-[2-methyl-4-bromobenzoyl]-3-chloro-4-fluorophenylsulfonamide]
40 | 28.4 µM | Cc1cc(Br)ccc1C(=O)NS(=O)(=O)c1ccc(I)cc1 [Example 36, N-[2-methyl-4-bromobenzoyl]-4-iodophenylsulfonamide]
41 | 15.5 µM | Cc1cccc(S(=O)(=O)NC(=O)c2ccc(Br)cc2C)c1 [Example 37, N-[2-methyl-4-bromobenzoyl]-3-methylphenylsulfonamide]
42 | 13.9 µM | O=C(NS(=O)(=O)c1ccc(I)cc1)c1ccc(Br)cc1Br [Example 38, N-[2,4-dibromobenzoyl]-4-iodophenylsulfonamide]
43 | 14.5 µM | COc1ccc(S(=O)(=O)NC(=O)c2ccc(Cl)cc2C)cc1 [Example 41, N-[2-methyl-4-chlorobenzoyl]-4-methoxyphenylsulfonamide]
44 | 3.3 µM | Cc1cc(Cl)ccc1C(=O)NS(=O)(=O)c1ccc(F)cc1 [Example 42, N-[2-methyl-4-chlorobenzoyl]-4-fluorophenylsulfonamide]
45 | 16.8 µM | Cc1cc(Cl)ccc1C(=O)NS(=O)(=O)c1ccc(I)cc1 [Example 56, N-[2-methyl-4-chlorobenzoyl]-4-iodophenylsulfonamide]
46 | 14.2 µM | CCSc1ccc(S(=O)(=O)NC(=O)c2ccc(Br)cc2C)cc1 [Example 61, N-[2-methyl-4-bromobenzoyl]-4-ethylthiophenyl-sulfonamide]
47 | 19.3 µM | CCSc1ccc(S(=O)(=O)NC(=O)c2ccc(Cl)cc2Cl)cc1 [Example 62, N-[2,4-dichlorobenzoyl]-4-ethylthiophenyl-sulfonamide]
48 | 18.2 µM | CC(C)c1ccc(S(=O)(=O)NC(=O)c2ccc(Br)cc2Cl)cc1 [Example 64, N-[2-chloro-4-bromobenzoyl]-4-isopropylphenyl-sulfonamide]
49 | 16.9 µM | CCc1ccc(S(=O)(=O)NC(=O)c2ccc(Cl)cc2C)cc1 [Example 70, N-[2-methyl-4-chlorobenzoyl]-4-ethylphenylsulfonamide]
